Assay results from patent US6737407B1, “Treatment of obesity” (Metabolic Pharmaceuticals, Ltd., priority 1997, dated 2004).
Bridges are numbered along the chain shown (N, C = ends). Where no end group is shown, it is not given here. [ ]: non-standard residue; d: D form. The star is where a group is joined. Pen = CC(C)(S)[C@H](N)C(=O)O; Acm = CC(=O)NC*

Tested on: adipose tissues from male Zucker fatty (fa/fa) rats
Assay: In vitro inhibition of lipogenesis in isolated adipose tissue
Type: cell-based, rat
Conditions: for In vitro lipogenesis % of control / In vitro lipogenesis Activity / In vitro lipogenesis, rate of [C14]-glucose incorporation into [C14]-lipid: peptide 0.3 μM, insulin 0.1 mU/ml; for In vitro lipogenesis, rate of [C14]-glucose incorporation into [C14]-lipid: KRB buffer; for activity according to the in vivo and in vitro assay results (in words): structure-activity summary
Experimental: The rate of the incorporation of exogenous [C^14]-glucose into total lipid in adipose tissue was measured as the index of anti-lipogenic activity of hGH 177-191.
Adipose tissues were sliced into segments of approximately 200 mg each and then placed in Krebs-Ringer bicarbonate (KRB) buffer (pH 7.4) containing 2% defatted BSA, and glucose (0.1 mg/ml) and gassed with 95% O2-5% CO2 at 37° C. After 1 hr preincubation, the tissues were transferred to another 2 ml of fresh media containing [C^14]-glucose (final specific activity 0.05 μCi/μmol), and 0.3 μM of hGH 177-191 in the presence or absence of insulin (0.1 mU/ml) for a further 90 min incubation (conditions as above). Then the tissues were removed, washed thoroughly with KRB buffer and lipid was extracted with 5 ml of chlorofom/methanol (2:1, v/v) The extraction solution was washed with 2 ml of MeOH-H2O solution containing 0.1% MgCl2. A 2.5 ml aliquot of the washed extraction solution was taken and transferred to scintillation vials. The [C^14] radioactivity was measured with a liquid scintillation counter. The rates of total lipid synthesis were expressed as μmol [C^14]-glucose incorporated into lipid/g tissue/hr.

Substance	In vitro lipogenesis % of control	In vitro lipogenesis Activity	In vitro lipogenesis, rate of [C14]-glucose incorporation into [C14]-lipid [nmol/g tissue/hr]	activity according to the in vivo and in vitro assay results (in words)
9401 (LRIVQCRSVEGSCGF; listed as Homo sapiens) [Compound 9401]	75 % of control	Active	161 ± 10	
9402 (LRIVQC(Acm)RSVEGSCGF; not fully specified (residue 13); listed as Homo sapiens) [Compound 9402]	91 % of control	Inactive	222 ± 9	
9402 (LRIVQC(Acm)RSVEGSCGF; not fully specified (residue 13); listed as Homo sapiens) [compound 9402]				inactive
9403 (LRKVQCRSVEGSCGF; disulfide 6-13; listed as Homo sapiens) [Compound 9403]	69 % of control	Active	167 ± 28	
9404 (LRIVQCRSVEGSCGF-NH2; disulfide 6-13; N-terminus assumed; SMILES CC[C@H](C)[C@H](NC(=O)[C@H](CCCNC(=N)N)NC(=O)[C@@H](N)CC(C)C)C(=O)N[C@H](C(=O)N[C@@H](CCC(N)=O)C(=O)N[C@H]1CSSC[C@@H](C(=O)NCC(=O)N[C@@H](Cc2ccccc2)C(N)=O)NC(=O)[C@H](CO)NC(=O)CNC(=O)[C@H](CCC(=O)O)NC(=O)[C@H](C(C)C)NC(=O)[C@H](CO)NC(=O)[C@H](CCCNC(=N)N)NC1=O)C(C)C; listed as Homo sapiens) [Compound 9404]	77 % of control	Active	187 ± 18	
9405 (Ac-LRIVQCRSVEGSCGF; disulfide 6-13; listed as Homo sapiens) [Compound 9405]	68 % of control	Active	164 ± 17	
9406 (LRIVQCASVEGSCGF; listed as Homo sapiens) [Compound 9406]	97 % of control	Inactive	236 ± 17	
9407 (LRIVQCKSVEGSCGF; disulfide 6-13; listed as Homo sapiens) [Compound 9407]	71 % of control	Active	174 ± 16	
9408 (LRIVQCKSVEGSCGF; lactam 7-10; disulfide 6-13; listed as Homo sapiens) [compound 9408]				retains activity
9410 (H-LRIVQCRSVEGSCGF; disulfide 6-13; also: desamino N-terminus; listed as Homo sapiens) [Compound 9410]	59 % of control	Active	143 ± 20	
9501 (LRIVQCRSVE[dA]SC[dA]F; disulfide 6-13; listed as Homo sapiens) [Compound 9501]	76 % of control	Active	185 ± 6	
9501 (LRIVQCRSVE[dA]SC[dA]F; disulfide 6-13; listed as Homo sapiens) [compound 9501]				activity being retained
9502 (LRIVQ[Pen]RSVEGS[Pen]GF; disulfide 6-13; listed as Homo sapiens) [Compound 9502]	72 % of control	Active	174 ± 5	
